Like-named read-outs stand apart in the source and are kept apart here.
Key:
Assay type in all cases: in vivo
Rotala indica [1] = assay: Comparative test, post-emergence treatment under submerged conditions (as Test Example 2); conditions: three weeks after the treatment, rating 0-5
From the text: (§1) [Test Example 2] Herbicidal effect test by post-emergence treatment to weeds under submerged conditions
(§2) In a 1/10,000-are Wagner pot was filled alluvial soil, which was mixed with water introduced therein to establish submerged conditions at a water depth of 4 cm. Respective seeds of Echinochloa crus-galli var. crus-galli, Monochoria vaginalis, Rotala indica and Scirpus juncoides were sowed mixedly in the pot and then 2.5 leaf stage rice seedlings were transplanted. The pot was placed in a greenhouse at 25 to 30°C to grow the plant. When Echinochloa crus-galli var. crus-galli, Monochoria vaginalis, Rotala indica and Scirpus juncoides reached 1 to 2 leaf stage and the rice plant reached 4 leaf stage, the compound of the present invention prepared according to one of Composition Examples was applied onto the water surface at a predetermined application rate. Three weeks after the treatment, the herbicidal effect on each kind of the weeds was examined in accordance with the criteria of judgment in Test Example 1.
(§3) [drawing 170] (diastreomer-(1) and (2)) involved in the claims of WO 97/02258 and the compound No. A-5 of the present invention were carried out in manners similar to that in test example 1 and 2.

Scirpus juncoides [2] = assay: Herbicidal effect test under submerged conditions, inhibition ratio (Test Example 6); conditions: Schoenoplectiella juncoides, 504 h, read-out: inhibition ratio (%), B (Scirpus juncoides); for pest or weed control at 2 g/ha: dosage 2 g/ha
From the text: (§4) [Test Example 6] Herbicidal effect test under submerged conditions
(§5) In a 1/5,000-are Wagner pot was filled alluvial soil, which was mixed with water introduced therein to establish submerged conditions at a water depth of 4 cm. After seeds of Monochoria vaginalis and Scirpus juncoides were sowed mixedly in the pot, 2.5 leaf stage rice seedlings were transplanted at a depth of 2 cm. On the next day of transplantation of the rice, the compound of the present invention prepared according to one of Composition Examples was applied. Three weeks after the treatment, the live weights of aerial parts of each kind of the weeds and rice were measured and inhibition ratios (%) were obtained according to Test Example 4. In the tables, (E) indicates expected values obtained by the equation of Colby and (F) indicates found values. Left side values and right side values in the column of application rate for each active ingredient indicate corresponding dosages of compounds in the column of compound name.
(§6) Synergistic herbicidal effect of herbicide mixtures will be explained as follows. That is, individual active compounds in many cases may be deficient in their herbicidal activity. In such a case, if the herbicidal activity of two active compounds in combination is higher than the simple sum of the activities of the compounds (expected activity), then this is called synergistic action. The expected activity from the stable combination of two herbicides, can be calculated as follows. (cf. Colby, S. R., Calculation of Synergistic and Antagonistic Reactions of Combination of Herbicides, Weed, vol. 15, pages 20-22 (1967)) E = α + β - ( α · β / 100) [formula] α : Inhibition ratio when herbicide A is applied in a rate of a kg/ha β : Inhibition ratio when herbicide B is applied in a rate of b kg/ha E : Inhibition ratio expected when herbicide A is applied in a rate of a kg/ha and herbicide B is applied in a rate of b kg/ha.

Monochoria vaginalis [3] = assay: as above; conditions: Pontederia vaginalis, 504 h, read-out: inhibition ratio (%), C (Monochoria vaginalis); for pest or weed control at 2 g/ha: dosage 2 g/ha
From the text: as §4, §5, §6

rice plant = assay: Phytotoxicity test under shallow planting conditions for rice plant (Test Example 4); conditions: aerial part, three weeks after the treatment
From the text: [Test Example 4] Phytotoxicity test under shallow planting conditions for rice plant In a 1/5,000-are Wagner pot was filled alluvial soil, which was mixed with water introduced therein to establish submerged conditions at a water depth of 4 cm. Rice seedlings at 2.5 leaf stage were transplanted at a depth of 0.5 cm and the roots were exposed to the air. On the day when the transplantation was made, the compound of the present invention prepared according to one of Composition Examples was applied. Three weeks after the treatment, the live weight of the aerial part of the plant was measured and inhibition ratio (%) was obtained according to the following equation. Inhibition ratio (%) = (1 -(live weight of aerial part of treated plant)/(live weight of aerial part of non-treated plant)) x 100 [formula]

Scirpus juncoides [4] = assay: Herbicidal effect test under submerged conditions (Test Example 5); design: key: 0 indicating no influence; 5 indicating complete withering; conditions: three weeks after the treatment, rating 0-5
From the text: (§7) [Test Example 5] Herbicidal effect test under submerged conditions
(§8) In a 1/10,000-are Wagner pot was filled alluvial soil, which was mixed with water introduced therein to establish submerged conditions at a water depth of 4 cm. Respective seeds of Monochoria vaginalis, Rotala indica and Scirpus juncoides were sowed mixedly in the pot and then treated with the compound of the present invention prepared according to one of Composition Examples. Three weeks after the treatment, the herbicidal effect on the various weeds was examined.

Rotala indica [5] = assay: as above; design: key: 0 indicating no influence; 5 indicating complete withering; conditions: three weeks after the treatment, rating 0-5
From the text: as §7, §8

Monochoria vaginalis [6] = assay: as above; design: key: 0 indicating no influence; 5 indicating complete withering; conditions: three weeks after the treatment, rating 0-5
From the text: as §7, §8

Scirpus juncoides [7] = assay: Comparative test, pre-emergence treatment under submerged conditions (as Test Example 1); design: key: 0 indicating no influence; 5 indicating complete withering; conditions: three weeks after the treatment, rating 0-5
From the text: (§9) [Test Example 1] Herbicidal effect test by pre-emergence treatment to weeds under submerged conditions
(§10) In a 1/10,000-are Wagner pot was filled alluvial soil, which was mixed with water introduced therein to establish submerged conditions at a water depth of 4 cm. Respective seeds of Echinochloa crus-galli var. crus-galli, Monochoria vaginalis, Rotala indica and Scirpus juncoides were sowed mixedly in the pot and then 2.5 leaf stage rice seedlings were transplanted. The pot was placed in a greenhouse at 25 to 30°C to grow the plant. One day after the sowing, the compound of the present invention prepared according to one of Composition Examples was applied onto the water surface at a predetermined application rate. Three weeks after the treatment, the herbicidal effect on the rice plant and each kind of the weeds was examined. There was used five rating evaluation, with 0 indicating no influence and 5 indicating complete withering.
as §3

Rotala indica [8] = assay: as above; design: key: 0 indicating no influence; 5 indicating complete withering; conditions: three weeks after the treatment, rating 0-5
From the text: as §9, §10, §3

[9] = system: Echinochloa crus-galli var. crus-galli; assay: as above; design: key: 0 indicating no influence; 5 indicating complete withering; conditions: three weeks after the treatment, rating 0-5
From the text: as §9, §10, §3

Monochoria vaginalis [10] = assay: as above; design: key: 0 indicating no influence; 5 indicating complete withering; conditions: three weeks after the treatment, rating 0-5
From the text: as §9, §10, §3

transplanted rice [11] = assay: as above; design: key: 0 indicating no influence; 5 indicating complete withering; conditions: pre-emergence treatment to weeds, three weeks after the treatment, rating 0-5
From the text: as §9, §10, §3

transplanted rice [12] = assay: Herbicidal effect test under submerged conditions, inhibition ratio (Test Example 6); conditions: live weight of aerial part, three weeks after the treatment
From the text: Herbicidal effect test under submerged conditions
In a 1/5,000-are Wagner pot was filled alluvial soil, which was mixed with water introduced therein to establish submerged conditions at a water depth of 4 cm. After seeds of Monochoria vaginalis and Scirpus juncoides were sowed mixedly in the pot, 2.5 leaf stage rice seedlings were transplanted at a depth of 2 cm. On the next day of transplantation of the rice, the compound of the present invention prepared according to one of Composition Examples was applied. […] In the tables, (E) indicates expected values obtained by the equation of Colby and (F) indicates found values.
The expected activity from the stable combination of two herbicides, can be calculated as follows.

Scirpus juncoides [13] = assay: Comparative test, post-emergence treatment under submerged conditions (as Test Example 2); design: key: 0 indicating no influence; 5 indicating complete withering; conditions: three weeks after the treatment, rating 0-5
From the text: as §1, §2, §3

[14] = system: Echinochloa crus-galli var. crus-galli; assay: as above; design: key: 0 indicating no influence; 5 indicating complete withering; conditions: three weeks after the treatment, rating 0-5
From the text: as §1, §2, §3

Monochoria vaginalis [15] = assay: as above; design: key: 0 indicating no influence; 5 indicating complete withering; conditions: three weeks after the treatment, rating 0-5
From the text: as §1, §2, §3

[16] = dosage 25 g/ha, live weight of aerial part, three weeks after the treatment
[17] = live weight of aerial part, three weeks after the treatment
[18] = dosage 4 g/ha, live weight of aerial part, three weeks after the treatment

C=C(C)[C@@H]1C[C@@H]2O[C@]2(C)[C@H](OCc2ccccc2F)C1 [A-5, (1S, 2R, 4S, 6S)-2-(2-fluorobenzyloxy)-4-isopropenyl-1-methyl-7-oxabicyclo[4.1.0]heptane]
herbicidal effect, D (Rotala indica) (Rotala indica [1]; dosage 12.5 g/ha): 1
herbicidal effect, D (Rotala indica) (Rotala indica [1]; dosage 50 g/ha): 3
herbicidal effect, D (Rotala indica) (Rotala indica [1]; dosage 200 g/ha): 4
pest or weed control at 25 g/ha (Scirpus juncoides [2]; [16]): 52%
pest or weed control at 25 g/ha (Monochoria vaginalis [3]; [16]): 59%
the ratio of live weight to the non-treated area (%) (rice plant; dosage 125 g/ha): 86%
the ratio of live weight to the non-treated area (%) (rice plant; dosage 250 g/ha): 67%
herbicidal effect, B (Scirpus juncoides) (Scirpus juncoides [4]; dosage 125 g/ha): 4
herbicidal effect, B (Scirpus juncoides) (Scirpus juncoides [4]; dosage 250 g/ha): 5
herbicidal effect, B (Scirpus juncoides) (Scirpus juncoides [4]; dosage 500 g/ha): 5
herbicidal effect, D (Rotala indica) (Rotala indica [5]; dosage 125 g/ha): 2
herbicidal effect, D (Rotala indica) (Rotala indica [5]; dosage 250 g/ha): 4
herbicidal effect, D (Rotala indica) (Rotala indica [5]; dosage 500 g/ha): 5
herbicidal effect, C (Monochoria vaginalis) (Monochoria vaginalis [6]; dosage 125 g/ha): 3
herbicidal effect, C (Monochoria vaginalis) (Monochoria vaginalis [6]; dosage 250 g/ha): 5
herbicidal effect, C (Monochoria vaginalis) (Monochoria vaginalis [6]; dosage 500 g/ha): 5
herbicidal effect, B (Scirpus juncoides) (Scirpus juncoides [7]; dosage 12.5 g/ha): 2
herbicidal effect, B (Scirpus juncoides) (Scirpus juncoides [7]; dosage 50 g/ha): 3
herbicidal effect, B (Scirpus juncoides) (Scirpus juncoides [7]; dosage 200 g/ha): 5
herbicidal effect, D (Rotala indica) (Rotala indica [8]; dosage 12.5 g/ha): 2
herbicidal effect, D (Rotala indica) (Rotala indica [8]; dosage 50 g/ha): 5
herbicidal effect, D (Rotala indica) (Rotala indica [8]; dosage 200 g/ha): 5
herbicidal effect, A (Echinochloa crus-galli var. crus-galli) ([9]; dosage 12.5 g/ha): 5
herbicidal effect, A (Echinochloa crus-galli var. crus-galli) ([9]; dosage 50 g/ha): 5
herbicidal effect, A (Echinochloa crus-galli var. crus-galli) ([9]; dosage 200 g/ha): 5
herbicidal effect, C (Monochoria vaginalis) (Monochoria vaginalis [10]; dosage 12.5 g/ha): 2
herbicidal effect, C (Monochoria vaginalis) (Monochoria vaginalis [10]; dosage 50 g/ha): 5
herbicidal effect, C (Monochoria vaginalis) (Monochoria vaginalis [10]; dosage 200 g/ha): 5
herbicidal effect, a (transplanted rice) (transplanted rice [11]; dosage 12.5 g/ha): 0
herbicidal effect, a (transplanted rice) (transplanted rice [11]; dosage 50 g/ha): 0
herbicidal effect, a (transplanted rice) (transplanted rice [11]; dosage 200 g/ha): 0
inhibition ratio (%), a (transplanted rice) (transplanted rice [12]; dosage 25 g/ha): 0%
herbicidal effect, B (Scirpus juncoides) (Scirpus juncoides [13]; dosage 12.5 g/ha): 1
herbicidal effect, B (Scirpus juncoides) (Scirpus juncoides [13]; dosage 50 g/ha): 3
herbicidal effect, B (Scirpus juncoides) (Scirpus juncoides [13]; dosage 200 g/ha): 5
herbicidal effect, A (Echinochloa crus-galli var. crus-galli) ([14]; dosage 12.5 g/ha): 1
herbicidal effect, A (Echinochloa crus-galli var. crus-galli) ([14]; dosage 50 g/ha): 5
herbicidal effect, A (Echinochloa crus-galli var. crus-galli) ([14]; dosage 200 g/ha): 5
herbicidal effect, C (Monochoria vaginalis) (Monochoria vaginalis [15]; dosage 12.5 g/ha): 1
herbicidal effect, C (Monochoria vaginalis) (Monochoria vaginalis [15]; dosage 50 g/ha): 4
herbicidal effect, C (Monochoria vaginalis) (Monochoria vaginalis [15]; dosage 200 g/ha): 5

Cc1ccc(NC(=O)NC(C)(C)c2ccccc2)cc1 [R-1, daimuron, reference compound]
herbicidal effect, B (Scirpus juncoides) (Scirpus juncoides [4]; dosage 500 g/ha): 5
herbicidal effect, D (Rotala indica) (Rotala indica [5]; dosage 500 g/ha): 1
herbicidal effect, C (Monochoria vaginalis) (Monochoria vaginalis [6]; dosage 500 g/ha): 0

CCOC(=O)c1cnn(C)c1S(=O)(=O)NC(=O)Nc1nc(OC)cc(OC)n1 [R-2, pyrazosulfuron ethyl]
pest or weed control at 2 g/ha (Scirpus juncoides [2]; [17]): 71%
pest or weed control at 2 g/ha (Monochoria vaginalis [3]; [17]): 80%
inhibition ratio (%), a (transplanted rice) (transplanted rice [12]; dosage 2 g/ha): 0%

COC(=O)c1c(Cl)nn(C)c1S(=O)(=O)NC(=O)Nc1nc(OC)cc(OC)n1 [R-3, halosulfuron methyl]
pest or weed control at 4 g/ha (Scirpus juncoides [2]): 66%
pest or weed control at 4 g/ha (Monochoria vaginalis [3]): 71%
inhibition ratio (%), a (transplanted rice) (transplanted rice [12]; dosage 4 g/ha): 0%

COc1cc(OC)nc(NC(=O)NS(=O)(=O)c2c(Cl)nc3ccccn23)n1 [R-4, imazosulfuron]
pest or weed control at 4 g/ha (Scirpus juncoides [2]; [18]): 60%
pest or weed control at 4 g/ha (Monochoria vaginalis [3]; [18]): 65%

COc1cc(OC)nc(NC(=O)NS(=O)(=O)c2c(-c3nnn(C)n3)cnn2C)n1 [R-5, azimsulfuron]
pest or weed control at 2 g/ha (Scirpus juncoides [2]; [17]): 61%
pest or weed control at 2 g/ha (Monochoria vaginalis [3]; [17]): 75%

COc1cc(OC)nc(NC(=O)NS(=O)(=O)Nc2ccccc2C(=O)C2CC2)n1 [R-6, cyclosulfamuron]
pest or weed control at 4 g/ha (Scirpus juncoides [2]; [18]): 78%
pest or weed control at 4 g/ha (Monochoria vaginalis [3]; [18]): 77%
inhibition ratio (%), a (transplanted rice) (transplanted rice [12]; dosage 4 g/ha): 0%

CCOc1ccccc1OS(=O)(=O)NC(=O)Nc1nc(OC)cc(OC)n1 [R-7, ethoxysulfuron]
pest or weed control at 2 g/ha (Scirpus juncoides [2]; [17]): 72%
pest or weed control at 2 g/ha (Monochoria vaginalis [3]; [17]): 63%

COCCOc1ccccc1S(=O)(=O)NC(=O)N=c1nc(OC)[nH]c(OC)n1 [R-8, cinosulfuron]
pest or weed control at 4 g/ha (Scirpus juncoides [2]): 70%
pest or weed control at 4 g/ha (Monochoria vaginalis [3]): 69%
inhibition ratio (%), a (transplanted rice) (transplanted rice [12]; dosage 4 g/ha): 0%

COC(=O)c1ccccc1CS(=O)(=O)NC(=O)Nc1nc(OC)cc(OC)n1 [R-9, bensulfuron methyl]
pest or weed control at 4 g/ha (Scirpus juncoides [2]; [18]): 68%
pest or weed control at 4 g/ha (Monochoria vaginalis [3]; [18]): 69%
